This passage reports IC50 results from ChEMBL document CHEMBL3886912, “Imidazo[4,5-c]quinolin-2-one compounds and their use in treating Cancer” (2016).

Assay [1] has as its target Serine-protein kinase ATM (Homo sapiens, UniProt Q13315). Put plainly: Cellular Assay: Assay a) HT29 cells (ECACC #85061109) were seeded into 384 well assay plates (Costar #3712) at a density of 3500 cells/well in 40 μl EMEM medium containing 1% L glutamine and 10% FBS and allowed to adhere overnight. The following morning compounds of Formula (I) in 100% DMSO were added to assay plates by acoustic dispensing. After 1 h incubation at 37° C. and 5% CO2 plates (up to …. Type of assay: cell-based, HT-29.

Assay [2] has as its target Serine/threonine-protein kinase ATR (Homo sapiens, UniProt Q13535). Put plainly: Cellular Assay: Assay b) HT29 cells (ECACC #85061109) were seeded into 384 well assay plates (Costar #3712) at a density of 6000 cells/well in 40 μl EMEM medium containing 1% L glutamine and 10% FBS and allowed to adhere overnight. The following morning compound of Formula (I) in 100% DMSO was added to assay plates by acoustic dispensing. After 1 h incubation at 37° C. and 5% CO2, 40 nl of 3 mM 4NQO in 100% DMSO was added to all wells by acoustic dispensing, except minimum control wells which were left untreated with 4NQO to generate a null response control. Plates were returned to the incubator for a further 1 h. Then cells were fixed by adding 20 μl of 3.7% formaldehyde in PBS solution and incubating for 20 mins at r.t. Then 20 μl of 0.1% Triton X100 in PBS was added and incubated for 10 minutes at r.t., to permeabalise cells. Then the plates were washed once with 50 μl/well PBS, using a Biotek EL405 plate washer. Phospho-Chk1 Ser 345 antibody (Cell Signalling Technology #2348) was diluted 150 fold in PBS containing 0.05% polysorbate/Tween and 15 μl was added to each well and incubated over night at r.t. The next morning plates were washed three times with 50 μl/well PBS, using a Biotek EL405 plate washer, and then 20 μl of secondary Ab solution, containing 500 fold diluted Alexa Fluor 488 Goat anti-rabbit IgG (Molecular Probes #A-11008) and 0.002 mg/ml Hoeschst dye (Molecular Probes #H-3570), in PBST, was added. After 2 h incubation at r.t., the plates were washed three times with 50 μl/well PBS, using a Biotek EL405 plate washer, and plates were then sealed with black plate seals until read. Plates were read using an ArrayScan VTI instrument, using an XF53 filter with 10× objective. A two laser set up was used to analyse nuclear staining with Hoeschst (405 nm) and secondary antibody staining of pChk1 (488 nm). It counts as cell-based, HT-29.

pIC50: −log10 of the molar value.

Chain of Serine-protein kinase ATM (Q13315 whole entry): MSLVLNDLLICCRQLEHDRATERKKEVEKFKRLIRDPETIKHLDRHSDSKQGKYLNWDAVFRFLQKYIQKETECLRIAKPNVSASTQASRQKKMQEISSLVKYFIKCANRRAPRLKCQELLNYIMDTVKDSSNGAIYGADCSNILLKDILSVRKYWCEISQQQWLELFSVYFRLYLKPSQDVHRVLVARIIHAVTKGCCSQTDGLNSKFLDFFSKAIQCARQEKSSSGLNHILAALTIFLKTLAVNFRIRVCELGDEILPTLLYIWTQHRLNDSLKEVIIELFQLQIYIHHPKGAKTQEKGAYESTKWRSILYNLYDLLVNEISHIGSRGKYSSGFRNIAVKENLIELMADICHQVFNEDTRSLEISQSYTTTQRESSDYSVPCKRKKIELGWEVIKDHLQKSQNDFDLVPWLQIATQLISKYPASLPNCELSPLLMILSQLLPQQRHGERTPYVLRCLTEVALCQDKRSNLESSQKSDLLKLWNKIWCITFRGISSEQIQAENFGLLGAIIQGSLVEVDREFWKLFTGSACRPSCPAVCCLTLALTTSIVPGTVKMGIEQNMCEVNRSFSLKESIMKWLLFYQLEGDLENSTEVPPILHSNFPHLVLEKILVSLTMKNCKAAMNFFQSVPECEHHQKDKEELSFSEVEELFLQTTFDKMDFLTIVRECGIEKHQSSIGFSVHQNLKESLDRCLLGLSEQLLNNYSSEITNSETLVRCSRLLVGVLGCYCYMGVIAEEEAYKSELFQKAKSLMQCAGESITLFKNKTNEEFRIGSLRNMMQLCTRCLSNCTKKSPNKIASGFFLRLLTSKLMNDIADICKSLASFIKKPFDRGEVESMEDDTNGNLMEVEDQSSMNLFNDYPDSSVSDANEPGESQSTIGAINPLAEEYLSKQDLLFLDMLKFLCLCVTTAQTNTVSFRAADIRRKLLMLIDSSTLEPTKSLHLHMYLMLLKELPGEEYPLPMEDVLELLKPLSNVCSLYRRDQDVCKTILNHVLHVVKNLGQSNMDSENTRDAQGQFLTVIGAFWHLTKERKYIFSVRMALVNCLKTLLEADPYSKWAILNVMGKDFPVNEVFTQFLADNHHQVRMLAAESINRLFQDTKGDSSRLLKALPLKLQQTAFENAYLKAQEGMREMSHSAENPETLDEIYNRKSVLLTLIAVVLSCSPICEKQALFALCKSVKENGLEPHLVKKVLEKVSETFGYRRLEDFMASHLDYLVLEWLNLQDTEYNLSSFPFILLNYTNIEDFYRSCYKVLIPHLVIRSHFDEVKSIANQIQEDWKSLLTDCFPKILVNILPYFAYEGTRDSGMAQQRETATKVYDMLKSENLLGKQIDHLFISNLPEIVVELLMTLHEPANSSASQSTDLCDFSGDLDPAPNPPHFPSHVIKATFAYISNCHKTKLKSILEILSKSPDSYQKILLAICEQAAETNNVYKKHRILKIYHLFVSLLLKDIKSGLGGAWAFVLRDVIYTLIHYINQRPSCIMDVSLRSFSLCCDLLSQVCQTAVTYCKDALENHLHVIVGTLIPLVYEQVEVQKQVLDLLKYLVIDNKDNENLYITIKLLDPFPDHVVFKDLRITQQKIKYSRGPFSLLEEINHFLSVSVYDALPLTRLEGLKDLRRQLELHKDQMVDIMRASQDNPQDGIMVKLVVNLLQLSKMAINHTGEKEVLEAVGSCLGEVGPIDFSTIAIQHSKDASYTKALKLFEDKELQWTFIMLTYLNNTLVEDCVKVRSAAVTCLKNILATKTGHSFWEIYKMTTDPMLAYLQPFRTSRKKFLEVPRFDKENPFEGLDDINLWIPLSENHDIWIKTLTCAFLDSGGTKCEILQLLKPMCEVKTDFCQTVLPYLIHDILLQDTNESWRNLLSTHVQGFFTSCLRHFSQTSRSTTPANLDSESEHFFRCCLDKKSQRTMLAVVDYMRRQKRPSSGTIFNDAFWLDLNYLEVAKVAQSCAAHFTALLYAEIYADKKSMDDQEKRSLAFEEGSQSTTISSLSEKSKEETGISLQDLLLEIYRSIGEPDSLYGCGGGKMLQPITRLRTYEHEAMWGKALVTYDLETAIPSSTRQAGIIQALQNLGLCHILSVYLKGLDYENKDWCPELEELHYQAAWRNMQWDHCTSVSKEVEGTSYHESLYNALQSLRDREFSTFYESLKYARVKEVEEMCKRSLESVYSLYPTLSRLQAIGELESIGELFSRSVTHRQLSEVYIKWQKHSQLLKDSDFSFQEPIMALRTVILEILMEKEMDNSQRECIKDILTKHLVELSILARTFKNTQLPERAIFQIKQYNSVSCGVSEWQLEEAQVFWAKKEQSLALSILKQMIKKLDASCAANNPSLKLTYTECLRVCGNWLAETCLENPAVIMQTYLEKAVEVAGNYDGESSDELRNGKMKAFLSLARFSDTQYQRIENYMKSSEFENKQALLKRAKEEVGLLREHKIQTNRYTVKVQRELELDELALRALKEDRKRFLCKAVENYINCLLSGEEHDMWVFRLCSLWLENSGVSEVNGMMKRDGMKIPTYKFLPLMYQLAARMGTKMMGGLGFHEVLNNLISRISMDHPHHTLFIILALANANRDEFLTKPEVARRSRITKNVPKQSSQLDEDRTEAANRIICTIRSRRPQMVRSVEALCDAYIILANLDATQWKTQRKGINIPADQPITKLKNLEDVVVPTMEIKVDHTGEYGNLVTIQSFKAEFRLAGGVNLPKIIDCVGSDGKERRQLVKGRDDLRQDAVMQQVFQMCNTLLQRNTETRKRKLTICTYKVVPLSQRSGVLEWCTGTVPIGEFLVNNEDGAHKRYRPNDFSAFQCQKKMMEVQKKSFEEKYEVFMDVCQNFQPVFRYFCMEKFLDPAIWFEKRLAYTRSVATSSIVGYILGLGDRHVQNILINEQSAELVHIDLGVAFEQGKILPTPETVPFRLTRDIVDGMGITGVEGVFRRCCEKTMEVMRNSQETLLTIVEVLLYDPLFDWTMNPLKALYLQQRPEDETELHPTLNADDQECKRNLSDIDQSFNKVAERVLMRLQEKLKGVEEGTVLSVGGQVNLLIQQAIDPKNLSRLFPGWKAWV

By pIC50 is commonly meant the negative decadic logarithm of the IC50, by convention in mol/L. A high value points to a low IC50. With `CN(C)CCCOc1ccc(-c2ccc3ncc4c(c3c2)n(C2COC2)c(=O)n4C)cn1`, the pIC50 in assay [1] is 8.84; in assay [2], below 4.52.
For the molecule `CN(C)CCCOc1ccc(-c2cc3c(cc2F)ncc2c3n([C@@H]3CCCOC3)c(=O)n2C)cn1`, the pIC50 was 9.00 in assay [1] and below 4.52 in assay [2].
Take `CN(C)CCCOc1ccc(-c2cc3c(cc2F)ncc2c3n([C@H]3CCCOC3)c(=O)n2C)cn1`: the pIC50 in assay [1] is 8.94; in assay [2] it was below 4.53.
For `CN(C)CCCOc1ccc(-c2ccc3ncc4c(c3c2)n([C@H]2C[C@@H](O)C2)c(=O)n4C)cn1`, the pIC50 in assay [1] is 9.62; in assay [2], below 4.52.
